Results on ten molecules are retold here after patent US20100056497A1, “AMIDE DERIVATIVE” (DAINIPPON SUMITOMO PHARMA CO., LTD, priority 2007, published 2010).

Counter-ions that a name gives are not always drawn.

One assay deals with T1, Recombinant human renin (Homo sapiens, UniProt P00797).
T1 sequence (P00797 67-406): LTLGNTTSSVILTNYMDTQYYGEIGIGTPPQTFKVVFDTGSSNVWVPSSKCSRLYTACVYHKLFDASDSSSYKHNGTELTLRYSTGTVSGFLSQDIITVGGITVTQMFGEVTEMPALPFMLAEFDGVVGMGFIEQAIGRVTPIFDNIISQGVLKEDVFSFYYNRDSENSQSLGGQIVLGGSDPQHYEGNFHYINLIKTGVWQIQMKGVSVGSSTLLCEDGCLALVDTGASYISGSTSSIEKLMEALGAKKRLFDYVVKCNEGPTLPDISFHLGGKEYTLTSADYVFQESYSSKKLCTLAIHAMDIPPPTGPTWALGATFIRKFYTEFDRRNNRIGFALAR
The experiment in a line: In vitro renin inhibitory activity assay (fluorescence, FRET peptide substrate). In kind it is biochemical. The settings on record: 37° C., one hour, substrate 4 μM, pH 7.4. On the procedure: In Vitro Renin Inhibitory Activity Assay
Recombinant human renin (50 ng) was reacted in 0.1M BEPES buffer (pH 7.4) containing 0.1M NaCl, 1 mM EDTA and 0.1 mg/mL BSA together with a substrate and a test compound at 37° C. for one hour. As the substrate, Arg-Glu(EDANS)-Ile-His-Pro-Phe-His-Leu-Val-Ile-His-Thr-Lys(DABCYL)-Arg or DABCYL-γ-Abu-Ile-His-Pro-Phe-His-Leu-Val-Ile-His-Thr-EDANS was added in such an amount so that the final concentration thereof became 4 μM. The elevated fluorescence intensity at the exciting wavelength 340 nm and the fluorescence wavelength 500 nm was measured by a fluorescence plate reader. The concentration of a test compound to be needed to inhibit an enzyme activity in the presence of a test compound in plural concentrations by 50% was calculated as an IC50 value.
The amino acid sequence disclosed in Seq ID:1 is an amino acid sequence used in the renin inhibitory activity assay.
The amino acid sequence disclosed in Seq ID:2 is an amino acid sequence used in the renin inhibitory activity assay.
With `COCCCOc1cc(C(=O)N(C(C)C)[C@@H]2CC[C@H](CCN(C(=O)CC(C)(C)C(N)=O)C3CC3)NC2)ccc1OC` [Example 69, N^4-Cyclopropyl-N^4-[2-((2R,5R)-5-{isopropyl[4-methoxy-3-(3-methoxypropoxy)-benzoyl]amino}piperidin-2-yl)ethyl]-2,2-dimethylsuccinamide trifluoroacetate], the 50% inhibitory concentration (IC50) (commonly the point on the concentration scale where inhibition reaches its midpoint) was 27.9 nM.
Same read-out and setting: for `COCCCOc1cc(C(=O)N(C(C)C)[C@@H]2CC[C@H](CCN(C(=O)Cc3ccccc3Cl)C3CC3)NC2)ccc1OC` [Example 72, N-((3R,6R)-6-{2-[[(2-chlorophenyl)acetyl](cyclopropyl)amino]ethyl}piperidin-3-yl)-N-isopropyl-4-methoxy-3-(3-methoxypropoxy)benzamide trifluoroacetate] the value was 3.7 nM.
The same measure, in the same setting: in the case of `COCCCOc1cc(C(=O)N(C(C)C)[C@@H]2CC[C@H](CCN(C(=O)Cc3ccccc3OC)C3CC3)NC2)ccc1OC` [Example 73, N-[(3R,6R)-6-(2-{Cyclopropyl[(2-methoxyphenyl)acetyl]amino}ethyl)piperidin-3-yl]-N-isopropyl-4-methoxy-3-(3-methoxypropoxy)benzamide trifluoroacetate] it was 4.6 nM; in that of `COCCCOc1cc(C(=O)N(C(C)C)[C@@H]2CC[C@H](CCN(C(=O)Cc3ccccc3C(F)(F)F)C3CC3)NC2)ccc1OC` [Example 74, N-{(3R,6R)-6-[2-(Cyclopropyl{[2-(trifluoromethyl)phenyl]acetyl}amino)ethyl]-piperidin-3-yl}-N-isopropyl-4-methoxy-3-(3-methoxypropoxy)benzamide trifluoroacetate], 5.1 nM.
`COCCCOc1cc(C(=O)N(C(C)C)[C@@H]2CC[C@H](CCN(C(=O)Cc3ccccn3)C3CC3)NC2)ccc1OC` [Example 75, N-((3R,6R)-6-{2-[Cyclopropyl(pyridin-2-ylacetyl)amino]ethyl}piperidin-3-yl)-N-isopropyl-4-methoxy-3-(3-methoxypropoxy)benzamide trifluoroacetate]: the IC50 turned out to be 4.7 nM.
Same read-out and setting: in the case of `COCCCOc1cc(C(=O)N(C(C)C)[C@@H]2CC[C@H](CCN(C(=O)Cc3cccnc3)C3CC3)NC2)ccc1OC` [Example 78, N-((3R,6R)-6-{2-[Cyclopropyl(pyridin-3-ylacetyl)amino]ethyl}piperidin-3-yl)-N-isopropyl-4-methoxy-3-(3-methoxypropoxy)benzamide trifluoroacetate] it was 0.79 nM; in that of `COCCCOc1cc(C(=O)N(C(C)C)[C@@H]2CC[C@H](CCN(C(=O)Cc3cccc(NS(C)(=O)=O)c3)C3CC3)NC2)ccc1OC` [Example 81, N-((3R,6R)-6-{2-[Cyclopropyl({3-[(methylsulfonyl)amino]phenyl}acetyl)amino]-ethyl}piperidin-3-yl)-N-isopropyl-4-methoxy-3-(3-methoxypropoxy)benzamide trifluoroacetate], 1.3 nM; in that of `COCCCOc1cc(C(=O)N(C(C)C)[C@@H]2CC[C@H](CCN(C(=O)Cc3cccc(C(=O)O)c3)C3CC3)NC2)ccc1OC` [Example 86, 3-(2-{Cyclopropyl[2-((2R,5R)-5-{isopropyl[4-methoxy-3-(3-methoxypropoxy)-benzoyl]amino}piperidin-2-yl)ethyl]amino}-2-oxoethyl)benzoic acid hydrochloride], 4 nM.
The same measure, in the same setting: in the case of `COCCCCN1C(=O)C(C)(C)Oc2ccc(C(=O)N(C(C)C)[C@@H]3CCCNC3)cc21` [Example 126, N-Isopropyl-4-(4-methoxybutyl)-2,2-dimethyl-3-oxo-N-[(3R)-piperidin-3-yl]-3,4-dihydro-2H-1,4-benzoxazine-6-carboxyamide hydrochloride] it was 21.7 nM.

Another assay deals with plasma renin activity / blood pressure.
Assay: not given
The conditions noted are these: clinical test in patients with hypertension; cited from earlier work.
Consider `COCCCOc1cc(C[C@@H](C[C@H](N)[C@@H](O)C[C@H](C(=O)NCC(C)(C)C(N)=O)C(C)C)C(C)C)ccc1OC` [aliskiren], for which the hypotensive activity result was “excellent hypotensive activity comparable to other RA system inhibitors” and the plasma renin activity result is listed as “significantly inhibits plasma renin activity”.
